# Experimental data from patent publication US20030022251A1, “Gamma-secretase in vitro screening assay” (Boehringer Ingelheim Pharma KG, priority 2001, published 2003).
# “Also recorded” adds a separate entry of the source.
# What was measured:
# γ-secretase [1] = molecular target: T1, γ-secretase (Homo sapiens, UniProt P49768); assay: Analysis of CTFγ and βAPP CTFs in membrane fractions of inhibitor-treated HEK 293 cells stably transfected with swAPP (immunoprecipitation/immunoblotting with antibody 6687); type: cell-based; conditions: increasing concentrations of DAPT for 4 h
# T1 construct: HEK 293 cells stably transfected with swAPP were treated with the indicated concentrations of DAPT for 4 h; endogenous in cells; host or cells: HEK 293 cells stably transfected with swAPP695 (only the substrate is transfected; the γ-secretase is the cells' own)
# Protocol: FIG. 1: Identification of in vivo produced CTFγ in human cells and mouse brain according to Example 1: (A) Membrane fractions of HEK 293 cells stably transfected with Swedish mutant βAPP695 (swAPP) were analyzed by combined immunoprecipitation/immunoblotting with antibody 6687 to the C-terminus of βAPP. Three βAPP CTFs were detected (C99 (=CTFβ), C83 (=CTFα), and the approximately 6 kDa CTFγ). The same βAPP CTFs including the approximately 6 kDa CTFγ were also observed by immunoblotting with antibody 6687 in mouse brain. (B) The γ-secretase inhibitor DAPT inhibits CTFγ production. HEK 293 cells stably transfected with swAPP were treated with the indicated concentrations of DAPT for 4 h. Upper and middle panel: Membrane fractions were prepared and analyzed for βAPP CTFs by combined immunoprecipitation/immunoblotting with antibody 6687. […] Lower panel: Conditioned media were analyzed for secreted Aβ by combined immunoprecipitation/immunoblotting with antibodies 3926/6E10. […] (C) CTFγ production is dependent on biologically active presenilins. Membrane fractions from control cells expressing PS1 wt or cells stably expressing PS1 D385N were analyzed by combined immunoprecipitation/immunoblotting with antibody 6687. […]
# CTFγ was analyzed by combined immunoprecipitation/westernblotting with antibody 6687 of membrane extracts from stably transfected HEK 293 cells or from mouse brain. […]
# γ-secretase [2] = molecular target: T1, γ-secretase; assay: Analysis of secreted Aβ in conditioned media of HEK 293 swAPP cells (immunoprecipitation/immunoblotting with antibodies 3926/6E10); type: cell-based; conditions: DAPT for 4 h, FIG. 1B lower panel
# Protocol: FIG. 1: Identification of in vivo produced CTFγ in human cells and mouse brain according to Example 1: (A) Membrane fractions of HEK 293 cells stably transfected with Swedish mutant βAPP695 (swAPP) were analyzed by combined immunoprecipitation/immunoblotting with antibody 6687 to the C-terminus of βAPP. Three βAPP CTFs were detected (C99 (=CTFβ), C83 (=CTFα), and the approximately 6 kDa CTFγ). The same βAPP CTFs including the approximately 6 kDa CTFγ were also observed by immunoblotting with antibody 6687 in mouse brain. (B) The γ-secretase inhibitor DAPT inhibits CTFγ production. HEK 293 cells stably transfected with swAPP were treated with the indicated concentrations of DAPT for 4 h. Upper and middle panel: Membrane fractions were prepared and analyzed for βAPP CTFs by combined immunoprecipitation/immunoblotting with antibody 6687. […] Lower panel: Conditioned media were analyzed for secreted Aβ by combined immunoprecipitation/immunoblotting with antibodies 3926/6E10. […] Membrane fractions from control cells expressing PS1 wt or cells stably expressing PS1 D385N were analyzed by combined immunoprecipitation/immunoblotting with antibody 6687. […]
# Aβ was immunoprecipitated from conditioned media collected for 4 h with antibody 3926, separated on Tris-Tricine gels and detected by immunoblotting with antibody 6E10 using a chemiluminescent detection system (Tropix, USA).
# γ-secretase [3] = assay: In vitro generation of CTFγ from membrane preparations of HEK 293 cells stably transfected with swAPP (immunoblotting with antibody 6687); type: biochemical, human; conditions: 250 nM DAPT
# Protocol: FIG. 2: In vitro generation of CTFγ according to Example 1: (A) Time dependent in vitro production of CTFγ. Membrane preparations were incubated at 37° C. for the indicated time points. The reaction mixtures were then separated in a soluble fraction (S100; lower panel) and a pellet fraction (P100; upper panel) by ultracentrifugation. These fractions were immunoblotted with antibody 6687. Note the selective accumulation of CTFγ in the S100(lower panel) fraction after 1-2 h incubation time. Very minor amounts of CTFγ were detected in the P100 fraction, which may be due to sticking of the highly hydrophobic CTFγ to membranes or to contamination of the P100 fraction with minor amounts of soluble proteins. (B) Two independent γ-secretase inhibitors (DAPT and “Compound 1”) inhibit the in vitro production of CTFγ. Membrane preparations were incubated with (+) or without (−) 250 nM DAPT (left panel) or 50 μM CM256 (right panel). The S100 fractions of the reaction mixtures were immunoblotted with antibody 6687. […]
# CTFγ was generated in vitro from membrane preparations of HEK 293 cells stably transfected with swAPP following previously described procedures (McLendon et al., 2000; Pinnix et al., 2001). […] Following SDS-PAGE on 10-20% Tris-Tricine gels (Invitrogen) samples were analyzed for CTFγ by immunoblotting with antibody 6687.
structure (smiles),measurement,setting,value
"C[C@H](NC(=O)Cc1cc(F)cc(F)c1)C(=O)N[C@H](C(=O)OC(C)(C)C)c1ccccc1 [DAPT, N-[N-(3,5-difluorophenacetyl)-L-alanyl]-S-phenylglycin t-butyl ester]",CTFγ generation,γ-secretase [1]; FIG. 1B middle panel,significant block of CTFγ generation; also recorded: dose dependent inhibition of CTFγ generation
same,CTFβ and CTFα levels,γ-secretase [1]; FIG. 1B upper panel,build up of CTFβ and CTFα; also recorded: increase of βAPP CTFβ and CTFα
same,secreted Aβ generation,γ-secretase [2],dose dependent inhibition; also recorded: severely reduced Aβ production
same,in vitro CTFγ generation,"γ-secretase [3]; membrane preparations at 37° C., S100 fraction, FIG. 2B left panel",significantly reduce CTFγ generation; also recorded: efficiently reduced in vitro generation of CTFγ
same,remaining in vitro CTFγ production,"γ-secretase [3]; membranes from cells expressing the inactive PS1 D385N mutation, FIG. 2D",reduces the remaining in vitro CTFγ production; also recorded: further reduced
